Here are results for 4 substances from PMC7972453, “The allosteric modulation of complement C5 by knob domain peptides” (eLife, 2021).

For this experiment, the target named is T1, human C5 (Homo sapiens, UniProt P01031).
T1 construct: tissue TCS Biosciences (serum); host or cells: human serum
The experiment can be described thus: SPR multi-cycle kinetics, binding to C5. To be noted: for fold drop in affinity of alanine mutant: relative to unmodified K8 or K92, SPR multi-cycle kinetics, n = 3. As to the method: Kinetics were measured using a Biacore 8K (GE Healthcare, Amersham, UK) with a CM5 chip, which was prepared as follows: 1-ethyl-3-(−3-dimethylaminopropyl) carbodiimide hydrochloride (EDC)/N-hydroxysuccinimide (NHS) was mixed at 1:1 ratio (flow rate, 10 µL/min; contact time, 30 s), and human C5 at 1 µg/mL in pH 4.5 sodium acetate buffer was injected over flow cell one only (flow rate, 10 µL/min; contact time, 60 s). Final immobilisation levels in the range of 2000–3000 RUs were obtained to yield theoretical Rmax values of ~50–60 RU. […] After each injection, the surface was regenerated with two sequential injections of 2 M MgCl2 (flow rate, 30 µL/min; contact time, 30 s). Binding to the reference surface was subtracted, and the data were fitted to a single-site binding model using Biacore evaluation software.
Table 2.6. Validation of molecular interactions by peptide mutagenesis analysis.
Summary of SPR multi-cycle kinetics

The mark [1] stands for this setting: Biacore 8K, HBS-EP pH 7.4, single-site model, mean of n=3, read-out: mean KD.
Where [2] appears, read: pH 7.4, read-out: mean koff, Biacore 8K, HBS-EP pH 7.4, mean of n=3.
[3] abbreviates: pH 7.4, read-out: mean kon, Biacore 8K, CM5 chip, HBS-EP pH 7.4, mean of n=3.

Read-outs that look alike come from different tables or passages of the source. Bridges are numbered along the chain shown (N, C = ends). Where no end group is shown, it is not given here.

For the substance “K92 F26A: alanine mutant of K92 (CPEGWSECGVAIYGYACGRWGCGHALNSGPNISP)”, the Kd reads like this: under setting [1], 18.8 nM; (replicate n=1, read-out: KD) 14.9 nM; (replicate n=2, read-out: KD) 21.5 nM; (replicate n=3, read-out: KD) 19.9 nM.
For the substance “K92 W21A: alanine mutant of K92 (CPEGWSECGVAIYGYACGRAGCGHFLNSGPNISP)”, the Kd runs as follows: under setting [1], 497 nM; (replicate n=1, read-out: KD) 437 nM; (replicate n=2, read-out: KD) 411 nM; (replicate n=3, read-out: KD) 644 nM.
Turning to “SVCPDGFDWGYGCAAGSSRFCTAHDWCCYDERADSHTYGFCTGNRVENLYFQ (disulfide 3-28, 13-21, 27-41 (inferred)) [K8 R22A]”, the “fold drop in affinity of alanine mutant” value was “twofold decrease in affinity”. Further, the mean stoich. ratio (Biacore 8K, mean of n=3) amounted to 0.27. For the same substance, the koff under setting [2] was 0.000599 s⁻¹. Under setting [3], the kon was found to be 54000 M⁻¹ s⁻¹. Besides, where the note is “replicate n=1”, the koff was determined as 0.000565 s⁻¹, the kon was 59200 M⁻¹ s⁻¹ and the stoich. ratio came to 0.29. Where the note is “replicate n=2”, the koff is 0.000672 s⁻¹, the kon was 53500 M⁻¹ s⁻¹ and the stoich. ratio is 0.24. Also, where the note is “replicate n=3”, the koff was 0.000561 s⁻¹, the kon was determined as 49400 M⁻¹ s⁻¹ and the stoich. ratio was found to be 0.27.
With “SVCPDGFDWGYGCAAGSSRFCTRHDWCCYDEAADSHTYGFCTGNRVENLYFQ (disulfide 3-28, 13-21, 27-41 (inferred)) [K8 R31A]”, the “fold drop in affinity of alanine mutant” value is listed as 715 -fold. Besides, the mean stoich. ratio (Biacore 8K, mean of n=3) is reported as 0.75. Further, under setting [2], the koff came out at 0.00152 s⁻¹. Further, the kon under setting [3] turned out to be 462 M⁻¹ s⁻¹. For the setting “replicate n=1”, the koff came to 0.00182 s⁻¹, the kon came to 786 M⁻¹ s⁻¹ and the stoich. ratio is 0.36. Where the note is “replicate n=2”, the off-rate constant (koff) amounted to 0.00125 s⁻¹, the association rate constant (kon) was 336 M⁻¹ s⁻¹ and the stoich. ratio worked out at 0.71. Moreover, for the setting “replicate n=3”, the dissociation rate constant (koff) came out at 0.00149 s⁻¹, the kon turned out to be 263 M⁻¹ s⁻¹ and the stoich. ratio is given as 1.18.

As usually defined, the Kd is the concentration at which binding is half-saturated. A word on the koff: it is the rate constant with which the complex falls apart. A word on the kon: it is a measure of how fast the partners come together.
